Assay results reported in a melting point compilation (Tetko et al.; mined from patent text by program, amines drawn as free bases though some values may be those of a salt).

| SMILES | melting point [°C] |
| --- | --- |
| COc1cccc(Nc2ncc3cc(-c4c(Cl)cccc4Cl)c(=O)n(C)c3n2)c1 | 203 to 204 |
| O=C(O)c1cn(C2COC2)c2c(Cl)c(F)c(F)cc2c1=O | > 300 |
| CCOC(=O)[C@H](Cc1ccc(Nc2nccc3ccncc23)cc1)NC1=CC(=O)C12CCOCC2 | 112 |
| C#Cc1ccc(C(=O)OC)c(O)c1 | 62 |
| CCOC(=O)c1sc2cc(COc3cccnc3)ccc2c1S(=O)c1cccc(OC)c1 (stereo not given) | 113 to 115 |
| Cc1ccc(N2CCCCC2)c(NC(=O)c2ccncc2)c1 | 142 to 144 |
| CCOC(=O)c1sc(NC(C)=O)nc1CCl | 164 to 165 |
| NC(=O)Cc1ccc2c(c1)CCc1cccnc1O2 | 164 to 165 |
| O=C(O)C(Cc1ccccc1)Oc1ccc2cc(-c3ccc(-c4ccccc4)[nH]3)ccc2c1 (stereo not given) | 176 to 178 |
| N#Cc1ccc(N2CCC(O)CC2)c2ccccc12 | 126 to 127 |
| CN(C)CCOc1ccc([C@H]2C[C@]3(C)C(=O)CC[C@H]3[C@@H]3CCc4c(ccc(O)c4Cl)[C@H]32)cc1 | 254 |
| O=C(O)CC1SCCOC1=O (stereo not given) | 96 to 98 |
| CC[C@@H](c1ccc(F)cc1)N(Cc1ccc(C(=O)OC)cc1)S(=O)(=O)c1ccc(Cl)cc1 | 73 to 75 |
| COc1ccc(Oc2ccc(C#CC(C)N(O)C(N)=O)s2)cc1 (stereo not given) | 137 to 138 |
| COc1cccc(CN=C(Cc2ccccc2)N2CC3C(=O)CCC(c4ccccc4)(c4ccccc4)C3C2)c1 (stereo not given) | 127 |
| CS(=O)(=O)Nc1cc2occ(Nc3ccccc3)c(=O)c2cc1Oc1ccccc1 | 212 to 213 |
| CC(C)(C)c1cccc(S(=O)(=O)n2c(C(C)(O)c3ccc(C(=O)O)s3)cc3cc(C(F)(F)F)ccc32)c1 (stereo not given) | 80 |
| NC1CCCn2c1nc(-c1ccncc1)cc2=O (racemic) | 144 to 146 |
| CCOc1ccc(S(=O)(=O)N2CCN(C)CC2)cc1C(=O)O | 201 |
| Cc1cccc(C)c1C(N)=NO | 77 to 79 |
| CCOC(=O)c1cc(-c2ccc(F)cc2)[nH]n1 | 148 to 150 |
| CCCCCC(C)N(CCCC)c1ccc(C2=C(C#N)C(=C(C#N)C#N)NC2=O)cc1 (stereo not given) | 180 |
| CCCc1cc(C(C)=O)c(O)cc1OCCCCC(=O)O | 106 |
| CON(c1ccc([N+](=O)[O-])cc1C#N)S(=O)(=O)c1ccc(Cl)c(C(F)(F)F)c1 | 140 to 142 |
| CCCS(=O)c1sc(C(N)=O)c2c1-c1c(cnn1C)CC2 (stereo not given) | 194 to 195 |
| Cc1ccc(S(=O)(=O)N(C)c2ccc(C)c([N+](=O)[O-])c2)cc1 | 104 to 106 |
| Nc1c([N+](=O)[O-])cc(Br)c2c1CN(Cc1ccccc1)CC2 | 150 to 152 |
| O=C(O)CCC1c2ccccc2C(=O)N1c1ccccc1 (stereo not given) | 186 to 187 |

Next, values leading:

| melting point [°C] | SMILES |
| --- | --- |
| 137 to 139 | O=C(N[C@H]1CCc2ccc(O)cc2C1)[C@H](O)c1ccc(OCc2ccccc2)cc1 |
| > 300 | Cc1cc(NC(=O)c2cccnc2Cl)[nH]n1 |
| 128 to 129 | COc1ccccc1-n1nnc2cc(F)c(N)cc21 |
| 82 to 85 | CCOC(=O)C(=O)c1csc(NC(c2ccccc2)c2ccccc2)n1 |
| 159 to 160 | Cc1oc(-c2ccc3ccccc3c2)nc1COc1ccc(/C=C/CO)cc1 |
| 166 to 170 | Cc1ccc2c(=O)c3cc(F)ccc3sc2c1 |
| 113 to 115 | COc1ccc2cccc(C(CCO)CNC(=O)C3CCC3)c2c1 (stereo not given) |
| 265 | COc1cc(C(=O)Cn2c(-c3nonc3N)nc3ccccc32)ccc1O |
| 129 to 131 | COc1cc(OC)c(-c2cc3ccccc3n2C)cc1C=CC(=O)c1ccc(S(=O)(=O)NO[Si](C)(C)C(C)(C)C)cc1 |
| 116 to 117 | CCCc1ccc(OCc2ccc(OCc3nc(-c4ccccc4)oc3C)cc2)c(CC(=O)O)c1 |
| 108 to 110 | Cc1ccc(O)c(-c2csc(N(C)C)n2)c1 |
| 120 to 121 | CSc1cc(C)nc(SC)c1NC(=O)CCCCCSc1nc2ccccc2o1 |
